Assay results as given in patent US11530317B2, “Deep eutectic solvent compositions” (SABIC GLOBAL TECHNOLOGIES B.V., priority 2017, dated 2022).
≈ marks a conversion by molar mass, not a printed value. Like-named read-outs stand apart in the source and are kept apart here.

Assays:
[1] = Quantification of solubility by visual inspection for undissolved material; assay type: physicochemical; settings: for Enhancement factor: solubility in ChCl-urea DES relative to aqueous solution; for Solubility in water: obtained in this work
Method: Solubility was determined through adding an amount of CB[n] n=6, 7 or 8 or x-CD (where x=α, β or γ) to 1 mL of solvent followed by vortexing and heating the mixture to 80° C. The mixture was inspected visually to determine the presence of undissolved material. The mixture was then cooled to room temperature and the mixture re-examined to determine the presence of any undissolved material.

[2] = UV/vis probing of host-guest binding in ChCl-urea DES
Method: Methylviologen dichloride (2.0 mg, […], 1 eq.) was dissolved in ChCl:urea (1 mL) by vortexing and heating to 60° C. The methylviologen radical was formed by addition of a significant excess of reducing agent, sodium hydrosulfite, approx. 20 molar equivalents. To this solution CB[7] (9.0 mg, […], 1 eq.) was added and dissolved through stirring at 60° C. A sample of this solution (0.1 mL) was added to ChCl-urea (1 mL) and measured by UV/vis.
Methylviologen dichloride (2.0 mg, […], 1 eq.) was dissolved in ChCl:urea (1 mL) by vortexing and heating to 60° C. The methylviologen radical was formed by addition of a significant excess of reducing agent, sodium hydrosulfite, approx. 20 molar equivalents. To this solution CB[8] (10.1 mg, […], 1 eq. or 20.2 mg, 15.6 mmol, 2 eq.) was added and dissolved through stirring at 60° C. 0.1 ml of this solution were added to 1 ml of ChCl-urea and measured by UV/vis.
To probe the binding of γ-CD to MV^.+ a high concentration of MV^.+ was required on account of the lower binding constants of CDs compared to CB[n]. A solution of MV^.+ (15 mg/mL) was prepared (as described for CB[7] above) and to this γ-CD (170 mg, 2 equivalents) was added.

[3] = Cyclic voltammetry cycling stability of MV in DES in air; assay type: physicochemical; settings: DES (ChCl-urea, ChCl-ethylene glycol, ChCl-glycerol), no degassing
Method: Electrochemical measurements were performed in air at 40° C. using a PalmSens EmStat potentiostat. A three-electrode cell was used, equipped with a glassy carbon working electrode (3 mm diameter, BASi), a Ag/AgCl reference electrode (BASi) and a platinum mesh counter electrode (Sigma-Aldrich). The working electrode was cleaned before experiments by mechanically polishing in alumina (Buehler, Micropolish, 1 μm) on a polishing cloth (Buehler, Microcloth).
Cyclic voltammetry (CV) was recorded at 0.1 V s^−1 scan rate and 5.0 mM MV^2+ 2Cl^− concentration. FcMeOH (5 mM) was used as an internal reference. Analyte solutions were prepared by heating the respective DES with MV^2+ 2Cl^− and FcMeOH to 80° C. for 30 min.
None of the solutions were degassed before measurement nor was any attempt made to exclude oxygen or air.

[4] = Long term UV/vis measurement of MV^+. in ChCl-urea DES exposed to air; assay type: physicochemical
Method: MV^2+ 2Cl^− (1 mg, 0.0039 mmol) was added to ChCl-urea DES (10 mL) and dissolved by heating to 80° C. for 30 min to give a 0.39 mM solution. The solution was then heated to 130° C. for 2 h during which time it had turned blue. A portion (1.5 mL) of the resulting blue solution was removed, placed in a cuvette and a UV/vis spectrum was recorded.
Spectra were recorded across a 100 h period in an open cuvette.
The solution was not degassed or covered in any way nor was any attempt to keep O2 out made.

[5] = Purging of MV^+. solutions (DES or water) with air, monitored by UV/vis at 609 nm; assay type: physicochemical
[6] = Photochemical switching of MV in DES (solar light simulator, then air purge); assay type: physicochemical; settings: photogenerated radical in DES, purging with air
Method: DES MV^2+ solution (1.5 mL) in a quartz cuvette (1 cm path length, Hellma) was placed in a water bath held at 25° C. and irradiated by a solar light simulator (Newport Oriel, 100 mW cm^−2) equipped with an air mass 1.5 global filter (AM 1.5 G). IR irradiation was filtered with a water filter (10 cm path length). Samples were thermostatted at 25° C.
Stock solutions of MV^2+ in each of the three DES were prepared as follows: MV^2+ 2Cl^− (10 mg, 0.04 mmol) was added each individual DES (ChCl-urea, ChCl-glycerol and ChCl-ethylene glycol) (10 mL) separately and dissolved by heating to 80° C. for 30 min to give a colorless solution.
MV^2+ in DES (1.5 mL) was transferred to a quartz cuvette and placed in a water bath held at 25° C. in front of a solar light simulator. The sample was removed from the simulator and UV/vis spectra recorded at various time intervals to monitor the formation of MV^+..
The resultant blue MV^+. solutions were then purged with air (30 mL min^−1) using a mass flow controller (Brooks). UV/vis spectra were recorded at time intervals during the purging to monitor the disappearance of the MV^+. species.

[7] = Solubility of methylviologen dichloride in ChCl-urea; assay type: physicochemical; settings: ChCl-urea DES
Text: However, it should be noted that other anions, such as [PF6]^− and I^− were also found to be soluble and may also be used.

[8] = values taken from Sabadini et al.; cited from earlier work
[9] = ChCl-urea DES, room temperature

O=C1N2CN3C(=O)N4CN5C(=O)N6CN7C(=O)N8CN9C(=O)N%10CN1C1C2N2CN%11C(=O)N(CN%12C(=O)N(CN%13C(=O)N(CN%14C(=O)N(CN1C2=O)C%10C9%14)C8C7%13)C6C5%12)C4C3%11 (stereo not drawn) [CB[5]]
DES solubility (maximum solubility) [1, 9]: approx. 25 mg/mL

O=C1N2CN3C(=O)N4CN5C(=O)N6CN7C(=O)N8CN9C(=O)N%10CN%11C(=O)N%12CN1C1C2N2CN%13C(=O)N(CN%14C(=O)N(CN%15C(=O)N(CN%16C(=O)N(CN%17C(=O)N(CN1C2=O)C%12C%11%17)C%10C9%16)C8C7%15)C6C5%14)C4C3%13 (stereo not drawn) [CB[6]]
maximum solubility ([1]; ChCl-TsOH DES): 1.0 mg/mL | maximum solubility ([1]; ChCl-urea DES): 1.0 mg/mL | DES solubility (maximum solubility) [1, 9]: 1.0 mg/mL | maximum solubility ([1]; H2O): <0.1 mg/mL | maximum solubility ([1]; HCl (3M)): 15.0 mg/mL | maximum solubility ([1]; NaCl (0.1M)): 4.6 mg/mL | maximum solubility ([1]; Phosphate buffer (pH = 7.0)): 17.4 mg/mL | Enhancement factor [1]: 10 | Solubility in water ([1]; water): <0.1 mg/mL

O=C1N2CN3C(=O)N4CN5C(=O)N6CN7C(=O)N8CN9C(=O)N%10CN%11C(=O)N%12CN%13C(=O)N%14CN1C1C2N2CN%15C(=O)N(CN%16C(=O)N(CN%17C(=O)N(CN%18C(=O)N(CN%19C(=O)N(CN%20C(=O)N(CN1C2=O)C%14C%13%20)C%12C%11%19)C%10C9%18)C8C7%17)C6C5%16)C4C3%15 (stereo not drawn) [CB[7]]
maximum solubility ([1]; ChCl-TsOH DES): 18.0 mg/mL | maximum solubility ([1]; ChCl-urea (1:2), room temperature): 15.0 mg cm^−3 | maximum solubility ([1]; ChCl-urea DES): 17.0 mg/mL | DES solubility (maximum solubility) [1, 9]: 17 mg/mL | maximum solubility ([1]; H2O): 4.4 mg/mL | maximum solubility ([1]; HCl (3M)): 100 mg/mL | maximum solubility ([1]; NaCl (0.1M)): 14.8 mg/mL | maximum solubility ([1]; Phosphate buffer (pH = 7.0)): 19.8 mg/mL | Enhancement factor [1]: 3.9 | maximum solubility in water ([1]; water): 4.4 mg cm^−3 | Solubility in water ([1]; water): 4.4 mg/mL (≈ 3.78 mM) | host-guest binding with MV^.+ by UV/vis [2]: binding of MV^.+ is occurring

C[n+]1ccc(-c2cc[n+](C)cc2)cc1.[Cl-].[Cl-] [MV, N,N′-dimethyl-4,4′-bipyridinium dichloride]
electrochemical cycling stability [3]: ≥ 100 cycles | change in absorbance at 609 nm ([4]; ChCl-urea DES, exposed to air, 100 h period): no change in absorbance at 609 nm | time solutions remain blue ([4]; DES solutions prepared and stored in air): > 6 months | forecast lifetime ([4]; in DES, in air): > 6 months | radical lifetime upon purging with air ([5]; ChCl-ethylene glycol DES (36 cP)): shortest radical lifetime | radical lifetime upon purging with air ([5]; ChCl-glycerol DES (376 cP)): 900 min | radical lifetime upon purging with air ([5]; ChCl-urea DES (632 cP)): 400 min | time to complete quenching ([5]; aqueous solution, purging with air 0.1 mL min^−1): less than 4 min | persistence of radical species ([5]; in DES, purging with air 30 mL min^−1): 2 to 15 h | time to revert to colourless [6]: ≤ 150 s | solubility in ChCl-urea [7]: soluble

OC[C@H]1O[C@@H]2O[C@H]3[C@H](O)[C@@H](O)[C@@H](O[C@H]4[C@H](O)[C@@H](O)[C@@H](O[C@H]5[C@H](O)[C@@H](O)[C@@H](O[C@H]6[C@H](O)[C@@H](O)[C@@H](O[C@H]7[C@H](O)[C@@H](O)[C@@H](O[C@H]1[C@H](O)[C@H]2O)O[C@@H]7CO)O[C@@H]6CO)O[C@@H]5CO)O[C@@H]4CO)O[C@@H]3CO [α-CD]
DES solubility (maximum solubility) [1, 9]: >500 mg/mL | Enhancement factor [1]: >3.5 | Solubility in water [8]: 129.5 mg/mL (≈ 133 mM)

OC[C@H]1O[C@@H]2O[C@H]3[C@H](O)[C@@H](O)[C@@H](O[C@H]4[C@H](O)[C@@H](O)[C@@H](O[C@H]5[C@H](O)[C@@H](O)[C@@H](O[C@H]6[C@H](O)[C@@H](O)[C@@H](O[C@H]7[C@H](O)[C@@H](O)[C@@H](O[C@H]8[C@H](O)[C@@H](O)[C@@H](O[C@H]1[C@H](O)[C@H]2O)O[C@@H]8CO)O[C@@H]7CO)O[C@@H]6CO)O[C@@H]5CO)O[C@@H]4CO)O[C@@H]3CO [β-CD]
CD content of the solution at that solubility ([1]; ChCl-urea DES): ~50 wt % | DES solubility (maximum solubility) [1, 9]: >1000 mg/mL | Enhancement factor [1]: >55

OC[C@H]1O[C@@H]2O[C@H]3[C@H](O)[C@@H](O)[C@@H](O[C@H]4[C@H](O)[C@@H](O)[C@@H](O[C@H]5[C@H](O)[C@@H](O)[C@@H](O[C@H]6[C@H](O)[C@@H](O)[C@@H](O[C@H]7[C@H](O)[C@@H](O)[C@@H](O[C@H]8[C@H](O)[C@@H](O)[C@@H](O[C@H]9[C@H](O)[C@@H](O)[C@@H](O[C@H]1[C@H](O)[C@H]2O)O[C@@H]9CO)O[C@@H]8CO)O[C@@H]7CO)O[C@@H]6CO)O[C@@H]5CO)O[C@@H]4CO)O[C@@H]3CO [γ-CD]
CD content of the solution at that solubility ([1]; ChCl-urea DES): ~50 wt % | DES solubility (maximum solubility) [1, 9]: >1000 mg/mL | Enhancement factor [1]: >4 | host-guest binding with MV^.+ by UV/vis [2]: binding behaviour similar to the CB[8] system occurred | Solubility in water [8]: 249.2 mg/mL (≈ 192 mM)

Cucurbit[8]uril [CB[8]]
maximum solubility ([1]; ChCl-TsOH DES): 3.1 mg/mL | maximum solubility ([1]; ChCl-urea DES): 2.0 mg/mL | DES solubility (maximum solubility) [1, 9]: 2 mg/mL | maximum solubility ([1]; H2O): <0.2 mg/mL | maximum solubility ([1]; HCl (3M)): 1.8 mg/mL | maximum solubility ([1]; NaCl (0.1M)): 0.1 mg/mL | maximum solubility ([1]; Phosphate buffer (pH = 7.0)): 0.3 mg/mL | Enhancement factor [1]: 10 | Solubility in water ([1]; water): <0.2 mg/mL | host-guest binding with MV^.+ by UV/vis [2]: formation of a 2:1 complex
